Measurements: publication PMC6979384, “Characterization of the plant homeodomain (PHD) reader family for their histone tail interactions” (Epigenetics & Chromatin, 2020)
“Also recorded” adds a separate entry of the source.

Legend:
Assay in all cases: Histone peptide microarray
Type in all cases: binding, human
ING4 = details: GST-tagged ING4; sheet Array Heatmap; each array performed twice, total n = 4
Outline: (§1)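 GST-tagged PHD finger readers were expressed, purified and applied at 0.5 μM to a microarray of 293 synthetic histone peptides carrying single or combinatorial PTMs, using an optimized protocol. Binding signals are averages with standard deviation from 4 replicates.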

ING5 = details: GST-tagged ING5; sheet Array Heatmap; each array performed twice, total n = 4
Outline: as §1

MLL5 = details: for Array Heatmap signal (histone peptide microarray): GST-tagged MLL5, sheet Array Heatmap, each array performed twice, total n = 4
Outline: as §1

ING2 = details: GST-tagged ING2; sheet Array Heatmap; each array performed twice, total n = 4
Outline: as §1

CHD5 (PPCC) = details: GST-tagged CHD5 (PPCC = Dual PHD + Dual Chromodomain); sheet Array Heatmap; each array performed twice, total n = 4
Outline: as §1

DPF2 (PPC2W2) = details: GST-tagged DPF2 (PPC2W2 = Dual PHD + C2W2-type Zn-finger); sheet Array Heatmap; each array performed twice, total n = 4
Outline: as §1

KDM5A (3) = details: GST-tagged KDM5A (3); sheet Array Heatmap; each array performed twice, total n = 4
Outline: as §1

DIDO1 = details: GST-tagged DIDO1; sheet Array Heatmap; each array performed twice, total n = 4
Outline: as §1

BPTF (PB) = details: GST-tagged BPTF (PB = PHD + Bromodomain); sheet Array Heatmap; each array performed twice, total n = 4
Outline: as §1

MORC3 (CW) = details: GST-tagged MORC3 (CW = CW-type Zn-finger); sheet Array Heatmap; each array performed twice, total n = 4
Outline: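 Each reader, produced as a GST fusion and purified, was tested at 0.5 μM on synthetic histone peptides (293 in total) carrying single or combinatorial marks. Intensities averaged over four replicates.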

PHRF1 (RP) = details: GST-tagged PHRF1 (RP); sheet Array Heatmap; each array performed twice, total n = 4
Outline: as §1

AIRE (PP) = details: GST-tagged AIRE (PP); sheet Array Heatmap; each array performed twice, total n = 4
Outline: as §1

TAF3 = details: GST-tagged TAF3; sheet Array Heatmap; each array performed twice, total n = 4
Outline: as §1

KDM7A = details: GST-tagged KDM7A; sheet Array Heatmap; each array performed twice, total n = 4
Outline: as §1

KDM5B (3) = details: for Array Heatmap signal (histone peptide microarray): GST-tagged KDM5B (3), sheet Array Heatmap, each array performed twice, total n = 4
Outline: as §1

CHD5 (PCC) = details: GST-tagged CHD5 (PCC = PHD + Dual Chromodomain); sheet Array Heatmap; each array performed twice, total n = 4
Outline: as §1

PHF8 = details: GST-tagged PHF8; sheet Array Heatmap; each array performed twice, total n = 4
Outline: as §1

PHF2 = details: GST-tagged PHF2; sheet Array Heatmap; each array performed twice, total n = 4
Outline: as §1

KDM5A (1) = details: GST-tagged KDM5A (1); sheet Array Heatmap; each array performed twice, total n = 4
Outline: as §1

PHF13 = details: GST-tagged PHF13; sheet Array Heatmap; each array performed twice, total n = 4
Outline: as §1

RAG2 = details: GST-tagged RAG2; sheet Array Heatmap; each array performed twice, total n = 4
Outline: as §1

SP140L = details: GST-tagged SP140L; sheet Array Heatmap; each array performed twice, total n = 4
Outline: as §1

ING1 = details: GST-tagged ING1; sheet Array Heatmap; each array performed twice, total n = 4
Outline: as §1

KDM5B (1) = details: GST-tagged KDM5B (1); sheet Array Heatmap; each array performed twice, total n = 4
Outline: as §1

PHF21A = details: GST-tagged PHF21A; sheet Array Heatmap; each array performed twice, total n = 4
Outline: as §1

ING3 = details: GST-tagged ING3; sheet Array Heatmap; each array performed twice, total n = 4
Outline: as §1

BAZ2B = details: GST-tagged BAZ2B; sheet Array Heatmap; each array performed twice, total n = 4
Outline: as §1

Substance | Array Heatmap signal (histone peptide microarray) (ING4) | Array Heatmap signal (histone peptide microarray) (ING5) | Array Heatmap signal (histone peptide microarray) (MLL5) | Array Heatmap signal (histone peptide microarray) (ING2) | Array Heatmap signal (histone peptide microarray) (CHD5 (PPCC)) | Array Heatmap signal (histone peptide microarray) (DPF2 (PPC2W2)) | Array Heatmap signal (histone peptide microarray) (KDM5A (3)) | Array Heatmap signal (histone peptide microarray) (DIDO1) | Array Heatmap signal (histone peptide microarray) (BPTF (PB)) | Array Heatmap signal (histone peptide microarray) (MORC3 (CW)) | Array Heatmap signal (histone peptide microarray) (PHRF1 (RP)) | Array Heatmap signal (histone peptide microarray) (AIRE (PP)) | Array Heatmap signal (histone peptide microarray) (TAF3) | Array Heatmap signal (histone peptide microarray) (KDM7A) | Array Heatmap signal (histone peptide microarray) (KDM5B (3)) | Array Heatmap signal (histone peptide microarray) (CHD5 (PCC)) | Array Heatmap signal (histone peptide microarray) (PHF8) | Array Heatmap signal (histone peptide microarray) (PHF2) | Array Heatmap signal (histone peptide microarray) (KDM5A (1)) | Array Heatmap signal (histone peptide microarray) (PHF13) | also measured
H3K4me1: H3 1-20 [Peptide H3K4me1] | 0.4885 | 0.3865 | 0.5428 | 0.606 | 0.5953 | 0.7192 | 0.6222 | 0.6429 | 0.3638 | 0.5834 | 0.6701 | 0.5018 | 0.2998 | 0.37 | 0.6104 | 0.8603 | 0.3997 | 0.5242 | 0.4924 | 0.6545 | Array Heatmap signal (histone peptide microarray) (RAG2): 0.3065; Array Heatmap signal (histone peptide microarray) (SP140L): 0.3684; Array Heatmap signal (histone peptide microarray) (ING1): 0.551; Array Heatmap signal (histone peptide microarray) (KDM5B (1)): 0.6949; Array Heatmap signal (histone peptide microarray) (PHF21A): 0.4917; Array Heatmap signal (histone peptide microarray) (ING3): 0.5265; Array Heatmap signal (histone peptide microarray) (BAZ2B): 0.4995
H3K4me3: H3 1-20 [Peptide H3K4me3] | 0.4513 | 0.3493 | 0.668 | 0.6884 | 0.5167 | 0.5958 | 0.6781 | 0.7775 | 0.3538 | 0.5878 | 0.4656 | 0.3854 | 0.3678 | 0.3234 | 0.4784 | 0.6826 | 0.4526 | 0.8051 | 0.4187 | 0.5859 | binding preference (MLL5; peptide microarray, reader 0.5 μM, n = 4): strong preference for H3K4me3 over the un-, mono-, or di-methylated H3K4 peptides; also recorded: specific reader for H3K4me3; binding preference (KDM5B (3); peptide microarray, reader 0.5 μM, n = 4, comparison between K9ac + K18ac peptides): showed such a preference on peptide microarrays; Array Heatmap signal (histone peptide microarray) (RAG2): 0.3757; Array Heatmap signal (histone peptide microarray) (SP140L): 0.3018; Array Heatmap signal (histone peptide microarray) (ING1): 0.6386; Array Heatmap signal (histone peptide microarray) (KDM5B (1)): 0.5666; Array Heatmap signal (histone peptide microarray) (PHF21A): 0.4238; Array Heatmap signal (histone peptide microarray) (ING3): 0.4876; Array Heatmap signal (histone peptide microarray) (BAZ2B): 0.4249
H3S10p: H3 1-20 [Peptide H3S10p] | 0.4889 | 0.3966 | 0.5416 | 0.606 | 0.5995 | 0.7013 | 0.4717 | 0.6622 | 0.3684 | 0.4872 | 0.5714 | 0.7118 | 0.3504 | 0.4084 | 0.5217 | 0.8638 | 0.4129 | 0.4863 | 0.5146 | 0.646 | Array Heatmap signal (histone peptide microarray) (RAG2): 0.2741; Array Heatmap signal (histone peptide microarray) (SP140L): 0.3768; Array Heatmap signal (histone peptide microarray) (ING1): 0.5325; Array Heatmap signal (histone peptide microarray) (KDM5B (1)): 0.6981; Array Heatmap signal (histone peptide microarray) (PHF21A): 0.5054; Array Heatmap signal (histone peptide microarray) (ING3): 0.4878; Array Heatmap signal (histone peptide microarray) (BAZ2B): 0.5109
H3K9me3: H3 1-20 [Peptide H3K9me3] | 0.4493 | 0.3535 | 0.5674 | 0.5901 | 0.5526 | 0.7027 | 0.563 | 0.7537 | 0.3464 | 0.4553 | 0.7596 | 0.4645 | 0.2799 | 0.3458 | 0.5156 | 0.824 | 0.3233 | 0.5168 | 0.4576 | 0.6291 | Array Heatmap signal (histone peptide microarray) (RAG2): 0.2542; Array Heatmap signal (histone peptide microarray) (SP140L): 0.3305; Array Heatmap signal (histone peptide microarray) (ING1): 0.5591; Array Heatmap signal (histone peptide microarray) (KDM5B (1)): 0.6712; Array Heatmap signal (histone peptide microarray) (PHF21A): 0.4617; Array Heatmap signal (histone peptide microarray) (ING3): 0.491; Array Heatmap signal (histone peptide microarray) (BAZ2B): 0.4699
